From patent US4605614A, “Method for measuring plasmin” (Nitto Boseki Co., Ltd., priority 1981, dated 1986)

What was measured:
[1] = target: plasmin (pig) (Sus scrofa, UniProt P06867); experiment: Km, Vmax and Vmax/Km of substrates for plasmin (pig); assay type: biochemical, Porcine (pig); settings: for Vmax (× 10^-7): TABLE 2, CHA substrates, plasmin (pig), 2,6-xylenol 615 nm; for Relative ratio: TABLE 2, V/Km of each sample divided by that of S2251 (so in the source)
Source text: The substrates produced by the above examples were used in the measurement of plasmin as follows: The principle of this measurement comprises quantitatively analyzing the decomposition product p-nitroaniline or 3-carboxy-4-hydroxyaniline produced by the enzymatic hydrolysis, by measuring the absorbance (O.D.) directly at 405 nm in the case of p-nitroaniline and, in the case of the 3-carboxy-4-hydroxyaniline at 615 nm after condensing it with 2,6-xylenol in the presence of an oxidant to develop a color.
For the measurements of these constants, the following method is adopted:
The enzyme and the substrate are mixed in a buffer solution and subjected to the hydrolysis for 30 seconds. The concentration of the substrate [S] is changed and the enzyme concentration is maintained constant. By measuring the absorbance (O.D.), the initial velocity of the hydrolysis can be determined. Where 1/V is plotted as a function of 1/[S], there is obtained a Lineweaver and Burk's linea from which graph the Vmax and Km can be determined.

[2] = target: Thrombin (TH) (Bos taurus, UniProt P00735); assay type: biochemical, Cow; settings: TABLE 4, CHA substrates; So = 0.54; pH 8.4; 37° C., 10 minutes; 1.0 NIH/ml
Procedure: (§1) The specificities of the novelly synthesized substrates were tested by reacting them with various enzymes respectively.
(§2) (1) Substrate solution concentration: 35 mmole/liter H2 O
(§3) (2) Buffer: Tris-hydrochloric acid buffer 50 mmole/l, NaCl 150 mmole/l (0.875%) was employed, and the pH for reaction was as follows depending on the enzyme.
(§4) 2,6-Xylenol 7.0 mmole+NaIO4 1.5 mmole/0.2N KOH
(§5) 0.5 ml of the buffer solution and 0.05 ml of the enzyme reagent were taken into a silicon-treated hard glass test tube or a plastic test tube, and preheated in a constant temperature bath at 37° C. for 5 minutes. Thereafter, 0.1 ml of the substrate solution was added to effect the enzymatic reaction at 37° C. for 10 minutes. Exactly after 10 minutes, 2.5 ml of the reaction terminating solution or the terminating and color developing reagent solution was added to terminate the enzymatic reaction, and after allowing to stand at 25° C. for 10 minutes, the absorbance at 405 nm or 645 nm was measured, in which [drawing 49]

[3] = target: Plasmin (PL) (Sus scrofa, UniProt P06867); assay type: biochemical, Pig; settings: TABLE 4, CHA substrates; So = 0.54; pH 7.4; 37° C., 10 minutes; 0.32 CU/ml
Procedure: as §2, §3
Plasmin Pig Sigma (U.S.A.)
as §5

[4] = target: Kallikrein (KL) (Sus scrofa, UniProt P00752); assay type: biochemical, Pig; settings: TABLE 4, CHA substrates; So = 0.54; pH 7.9; 37° C., 10 minutes; 1.0 BAEE-U/ml
Procedure: as §1, §2, §3, §4, §5

[5] = target: Factor-Xa (FXa) (Bos taurus, UniProt P00743); assay type: biochemical, Cow; settings: TABLE 4, CHA substrates; So = 0.54; pH 8.4; 37° C., 10 minutes; 0.4 U/ml
Procedure: as §1, §2, §3, §4, §5

[6] = target: Urokinase (UK) (Homo sapiens, UniProt P00749); assay type: biochemical; settings: TABLE 4, CHA substrates; So = 0.54; pH 8.2; 37° C., 10 minutes; 1000 IU/ml
Procedure: as §1, §2, §3, §4, §5

Sequence of plasmin (pig) (P06867 97-809): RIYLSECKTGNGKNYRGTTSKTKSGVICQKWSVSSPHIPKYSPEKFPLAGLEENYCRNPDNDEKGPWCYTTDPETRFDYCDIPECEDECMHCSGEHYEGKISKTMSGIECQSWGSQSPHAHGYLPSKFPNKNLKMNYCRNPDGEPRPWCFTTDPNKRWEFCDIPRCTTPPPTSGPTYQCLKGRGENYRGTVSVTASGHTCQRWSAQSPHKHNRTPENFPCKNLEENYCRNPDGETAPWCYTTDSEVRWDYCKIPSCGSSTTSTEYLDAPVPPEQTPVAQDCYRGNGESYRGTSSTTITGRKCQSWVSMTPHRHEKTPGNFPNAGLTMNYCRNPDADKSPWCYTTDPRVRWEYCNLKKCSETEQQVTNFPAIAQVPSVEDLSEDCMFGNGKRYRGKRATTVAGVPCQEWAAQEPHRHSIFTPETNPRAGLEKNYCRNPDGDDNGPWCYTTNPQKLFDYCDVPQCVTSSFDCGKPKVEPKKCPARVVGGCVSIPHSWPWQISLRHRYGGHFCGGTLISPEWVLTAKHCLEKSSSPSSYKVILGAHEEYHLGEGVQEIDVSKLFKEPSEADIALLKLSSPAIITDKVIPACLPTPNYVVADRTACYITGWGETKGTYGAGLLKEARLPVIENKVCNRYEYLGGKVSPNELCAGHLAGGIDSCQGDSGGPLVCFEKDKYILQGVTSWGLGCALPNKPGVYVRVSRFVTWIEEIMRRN
Sequence of Plasmin (PL) (P06867 97-809): as above
Sequence of Kallikrein (KL) (P00752 8-246): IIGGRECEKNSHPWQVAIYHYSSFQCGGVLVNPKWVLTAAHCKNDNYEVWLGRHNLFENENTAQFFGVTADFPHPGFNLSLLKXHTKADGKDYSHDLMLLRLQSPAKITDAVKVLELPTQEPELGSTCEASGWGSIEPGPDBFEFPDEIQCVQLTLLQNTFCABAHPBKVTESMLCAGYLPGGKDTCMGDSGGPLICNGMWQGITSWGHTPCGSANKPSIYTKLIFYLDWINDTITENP
Sequence of Factor-Xa (FXa) (P00743 41-180): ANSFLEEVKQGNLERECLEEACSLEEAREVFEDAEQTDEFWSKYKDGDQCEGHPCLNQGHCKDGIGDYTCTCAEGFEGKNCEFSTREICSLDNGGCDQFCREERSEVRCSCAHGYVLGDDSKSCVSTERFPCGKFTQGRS
Sequence of Factor-Xa (FXa) (P00743 234-492): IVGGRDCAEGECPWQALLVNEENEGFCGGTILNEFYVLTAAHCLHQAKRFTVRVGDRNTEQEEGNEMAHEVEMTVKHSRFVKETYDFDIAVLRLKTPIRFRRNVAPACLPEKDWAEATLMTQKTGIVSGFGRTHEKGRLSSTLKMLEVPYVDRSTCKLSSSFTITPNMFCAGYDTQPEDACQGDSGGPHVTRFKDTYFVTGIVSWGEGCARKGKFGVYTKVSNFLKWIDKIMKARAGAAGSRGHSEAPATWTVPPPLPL
Sequence of Thrombin (TH) (P00735 44-625): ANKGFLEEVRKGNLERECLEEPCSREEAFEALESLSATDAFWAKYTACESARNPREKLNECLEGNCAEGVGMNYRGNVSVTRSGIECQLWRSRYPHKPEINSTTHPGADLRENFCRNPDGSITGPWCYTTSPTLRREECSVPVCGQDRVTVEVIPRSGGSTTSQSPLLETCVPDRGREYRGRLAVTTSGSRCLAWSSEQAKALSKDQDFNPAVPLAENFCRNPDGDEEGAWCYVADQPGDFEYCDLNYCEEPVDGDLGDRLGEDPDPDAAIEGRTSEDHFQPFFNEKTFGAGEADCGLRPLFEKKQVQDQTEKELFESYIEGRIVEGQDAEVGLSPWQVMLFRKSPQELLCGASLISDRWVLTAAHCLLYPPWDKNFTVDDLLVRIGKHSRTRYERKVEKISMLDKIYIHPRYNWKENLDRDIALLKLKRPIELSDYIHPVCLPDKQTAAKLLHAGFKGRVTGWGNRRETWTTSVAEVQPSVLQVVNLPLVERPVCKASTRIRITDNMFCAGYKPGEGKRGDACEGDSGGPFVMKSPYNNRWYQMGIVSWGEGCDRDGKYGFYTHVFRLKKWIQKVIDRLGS

Vmax (× 10^-7) [1]	Relative ratio [1]	Selectivity TH, absorbance (O.D.) at 645 nm [2] [O.D.]	Selectivity PL, absorbance (O.D.) at 645 nm [3] [O.D.]	Selectivity KL, absorbance (O.D.) at 645 nm [4] [O.D.]	Selectivity FXa, absorbance (O.D.) at 645 nm [5] [O.D.]	Selectivity UK, absorbance (O.D.) at 645 nm [6] [O.D.]	Structure (SMILES)
3.556 × 10^-7	1.000	0	0.013	0.002	0.002	0	CC(C)C[C@H](NC(=O)[C@H](N)C(C)C)C(=O)N[C@@H](CCCCN)C(=O)Nc1ccc(O)c(C(=O)O)c1 [NPC-1, HD-ValLeuLysCHA.2HBr]
8.266 × 10^-7	11.811	0.002	0.090	0.006	0.004	0.002	CC(C)[C@@H](N)C(=O)N[C@@H](Cc1ccccc1)C(=O)N[C@@H](CCCCN)C(=O)Nc1ccc(O)c(C(=O)O)c1 [NPC-2, HD-ValPheLysCHA.2HCl]
7.506 × 10^-7	30.432	0	0.096	0.004	0.002	0	NCCCC[C@@H](N)C(=O)N[C@@H](Cc1ccccc1)C(=O)N[C@@H](CCCCN)C(=O)Nc1ccc(O)c(C(=O)O)c1 [NPC-3]
10.940 × 10^-7	39.351	0.001	0.144	0.006	0.002	0	CC(=O)NCCCC[C@@H](N)C(=O)N[C@@H](Cc1ccccc1)C(=O)N[C@@H](CCCCN)C(=O)Nc1ccc(O)c(C(=O)O)c1 [NPC-4, HD-Lys(AC)PheLysCHA.2HCl]
3.159 × 10^-7	9.739	0	0.051	0.001	0.002	0	Cc1ccc(S(=O)(=O)NCCCC[C@H](N)C(=O)N[C@@H](Cc2ccccc2)C(=O)N[C@@H](CCCCN)C(=O)Nc2ccc(O)c(C(=O)O)c2)cc1 [NPC-5, HL-Lys(Tos)PheLysCHA.2HCl]
11.670 × 10^-7	137.973	0	0.147	0.007	0.001	0	Cc1ccc(C(=O)NCCCC[C@@H](N)C(=O)N[C@@H](Cc2ccccc2)C(=O)N[C@@H](CCCCN)C(=O)Nc2ccc(O)c(C(=O)O)c2)cc1 [NPC-6, HD-Lys(Toc)PheLysCHA.2HCl]
29.417 × 10^-7	128.468	0	0.420	0.007	0.001	0	Cc1ccc(S(=O)(=O)NCCCC[C@@H](N)C(=O)N[C@@H](Cc2ccccc2)C(=O)N[C@@H](CCCCN)C(=O)Nc2ccc(O)c(C(=O)O)c2)cc1 [NPC-7, 2HCl.H-D-Lys(ToS)-L-Phe-L-Lys-CHA]
30.814 × 10^-7	154.748	0	0.498	0.011	0.002	0.002	NCCCC[C@H](NC(=O)[C@H](Cc1ccccc1)NC(=O)[C@H](N)CCCCNS(=O)(=O)c1ccc2ccccc2c1)C(=O)Nc1ccc(O)c(C(=O)O)c1 [NPC-8, HD-Lys(NaS)PheLysCHA.2HCl]
13.827 × 10^-7	38.270	0	0.120	0.027	0.001	0	NCCCC[C@H](NC(=O)[C@H](Cc1ccccc1)NC(=O)[C@H](N)CCCCNC(=O)c1ccc2ccccc2c1)C(=O)Nc1ccc(O)c(C(=O)O)c1 [NPC-9, HD-Lys(NaC)PheLysCHA.2HCl]
28.445 × 10^-7	94.369	0	0.344	0.010	0.002	0.001	Cc1cc(C)c(S(=O)(=O)NCCCC[C@@H](N)C(=O)N[C@@H](Cc2ccccc2)C(=O)N[C@@H](CCCCN)C(=O)Nc2ccc(O)c(C(=O)O)c2)c(C)c1 [NPC-10, HD-Lys(Mst)PheLysCHA.2HCl]
17.018 × 10^-7	99.532	0.001	0.277	0.012	0.003	0.003	Cc1ccc(S(=O)(=O)Oc2ccc(C[C@@H](N)C(=O)N[C@@H](Cc3ccccc3)C(=O)N[C@@H](CCCCN)C(=O)Nc3ccc(O)c(C(=O)O)c3)cc2)cc1 [NPC-11, HD-Tyr(Tos)PheLysCHA.2HCl]
25.679 × 10^-7	23.135	0.001	0.051	0.007	0.002	0.001	Cc1ccc(S(=O)(=O)NCCCC[C@@H](N)C(=O)N[C@@H](CC(C)C)C(=O)N[C@@H](CCCCN)C(=O)Nc2ccc(O)c(C(=O)O)c2)cc1 [NPC-12, HD-Lys(Tos)LeuLysCHA.2HBr]
17.991 × 10^-7	11.225	0.002	0.041	0.004	0.001	0.001	Cc1ccc(S(=O)(=O)Oc2ccc(C[C@@H](N)C(=O)N[C@@H](CC(C)C)C(=O)N[C@@H](CCCCN)C(=O)Nc3ccc(O)c(C(=O)O)c3)cc2)cc1 [NPC-13, HD-Tyr(Tos)LeuLysCHA.2HCl]
37.927 × 10^-7	64.180	0	0.480	0.010	0.002	0	NCCCC[C@H](NC(=O)[C@H](Cc1ccccc1)NC(=O)[C@H](N)CCCCNS(=O)(=O)c1ccccc1)C(=O)Nc1ccc(O)c(C(=O)O)c1 [NPC-15]
15.803 × 10^-7	23.874	0	0.192	0.002	0	0	NCCCC[C@H](NC(=O)[C@H](Cc1ccccc1)NC(=O)[C@H](N)CCCCNS(=O)(=O)c1cccc2ccccc12)C(=O)Nc1ccc(O)c(C(=O)O)c1 [NPC-17]
35.252 × 10^-7	58.558	0	0.392	0.019	0.002	0.001	Cc1ccc(S(=O)(=O)NCCC[C@@H](N)C(=O)N[C@@H](Cc2ccccc2)C(=O)N[C@@H](CCCCN)C(=O)Nc2ccc(O)c(C(=O)O)c2)cc1 [NPC-18]

Structure (SMILES)	Vmax (× 10^-7) [1]	Relative ratio [1]	Selectivity TH, absorbance (O.D.) at 645 nm [2] [O.D.]	Selectivity PL, absorbance (O.D.) at 645 nm [3] [O.D.]	Selectivity KL, absorbance (O.D.) at 645 nm [4] [O.D.]	Selectivity FXa, absorbance (O.D.) at 645 nm [5] [O.D.]	Selectivity UK, absorbance (O.D.) at 645 nm [6] [O.D.]
NCCCC[C@H](NC(=O)[C@H](Cc1ccccc1)NC(=O)[C@H](N)CCCCNC(=O)c1ccccc1)C(=O)Nc1ccc(O)c(C(=O)O)c1 [NPC-14]	33.794 × 10^-7	91.036	0	0.417	0.016	0.002	0.001
NCCCC[C@H](NC(=O)[C@H](Cc1ccccc1)NC(=O)[C@H](N)CCCCNC(=O)Cc1ccccc1)C(=O)Nc1ccc(O)c(C(=O)O)c1 [NPC-16]	26.986 × 10^-7	68.162	0	0.325	0.012	0.002	0.001
